For 1 compound, Kd, inhibition and IC50 results are on record in doi:10.1101/2025.05.29.656781v1 (biorxiv, 2025).

SMILES strings stand for the structures. Changes are numbered by the printed parent chain.

One test concerns the target T1, KChIP3 (Homo sapiens, UniProt Q9Y2W7).
T1 sequence (Q9Y2W7 1-256): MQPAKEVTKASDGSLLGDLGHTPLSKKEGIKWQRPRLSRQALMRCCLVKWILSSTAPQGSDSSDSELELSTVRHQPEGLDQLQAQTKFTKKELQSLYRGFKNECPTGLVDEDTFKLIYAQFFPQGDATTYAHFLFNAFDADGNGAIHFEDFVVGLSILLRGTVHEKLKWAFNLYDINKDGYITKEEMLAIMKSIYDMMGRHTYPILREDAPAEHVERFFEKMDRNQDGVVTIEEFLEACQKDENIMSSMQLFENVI
The experiment in a line: tryptophan fluorescence quenching. It is filed as binding.

Test [1] deals with T2, KV4.3/KChIP3 (Homo sapiens, UniProt Q9Y2W7).
T2 sequence (Q9Y2W7 1-256): T1 sequence (Q9Y2W7 1-256)
T2 sequence (Q9UK17 1-655 partner): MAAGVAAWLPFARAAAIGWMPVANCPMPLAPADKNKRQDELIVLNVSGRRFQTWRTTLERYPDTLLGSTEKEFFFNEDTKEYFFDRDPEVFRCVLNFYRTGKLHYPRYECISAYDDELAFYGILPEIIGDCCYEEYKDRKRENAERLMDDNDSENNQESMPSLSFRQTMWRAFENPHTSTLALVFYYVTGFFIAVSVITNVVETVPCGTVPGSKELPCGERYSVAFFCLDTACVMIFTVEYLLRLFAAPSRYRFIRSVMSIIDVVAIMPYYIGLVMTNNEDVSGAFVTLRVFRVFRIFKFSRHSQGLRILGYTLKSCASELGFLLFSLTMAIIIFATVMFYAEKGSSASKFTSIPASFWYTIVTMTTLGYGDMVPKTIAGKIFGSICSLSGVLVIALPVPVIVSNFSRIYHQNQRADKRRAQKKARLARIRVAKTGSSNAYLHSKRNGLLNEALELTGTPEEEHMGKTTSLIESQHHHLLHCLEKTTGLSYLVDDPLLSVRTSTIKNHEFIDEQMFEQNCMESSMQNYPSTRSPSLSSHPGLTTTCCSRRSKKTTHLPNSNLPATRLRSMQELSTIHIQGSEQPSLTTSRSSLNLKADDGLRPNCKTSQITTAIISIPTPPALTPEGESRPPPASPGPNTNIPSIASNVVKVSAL
The experiment in a line: whole-cell patch clamp, per cent block. As to conditions: read-out: % inhibition at 30 nM. In kind it is cell-based.

For test [2], the target named is T3, KV4.3/KChIP3 (Homo sapiens, UniProt Q9Y2W7, Y130A).
T3 sequence (Q9Y2W7 1-256 Y130A): T1 sequence (Q9Y2W7 1-256) with Y130A
T3 sequence (Q9UK17 1-655 partner): T2 sequence (Q9UK17 1-655 partner)
Kind of test: whole-cell patch clamp, per cent block. It is filed as cell-based. The note with it: read-out: % inhibition at 30 nM. A general note: Patch clamp records ionic current or voltage across a cell membrane.

Test [3] concerns the target T4, KV4.3/KChIP3 (Homo sapiens, UniProt Q9Y2W7, K166A).
T4 sequence (Q9Y2W7 1-256 K166A): T1 sequence (Q9Y2W7 1-256) with K166A
T4 sequence (Q9UK17 1-655 partner): T2 sequence (Q9UK17 1-655 partner)
Kind of test: whole-cell patch clamp, per cent block. The note with it: read-out: % inhibition at 30 nM. In kind it is cell-based.

Test [4] addresses T5, KV4.3/KChIP3 (Homo sapiens, UniProt Q9Y2W7, Y118A).
T5 sequence (Q9Y2W7 1-256 Y118A): T1 sequence (Q9Y2W7 1-256) with Y118A
T5 sequence (Q9UK17 1-655 partner): T2 sequence (Q9UK17 1-655 partner)
The experiment in a line: whole-cell patch clamp, per cent block. In kind it is cell-based. As to conditions: read-out: % inhibition at 30 nM.

Test [5] addresses T2, KV4.3/KChIP3. The experiment in a line: whole-cell patch clamp, peak current at +[…] mV. In kind it is cell-based.

One may read the Kd as the concentration at which binding is half-saturated. Read a high Kd as lower affinity. The inhibition is the change of the read-out against control, counted positive when it falls. What is called IC50 is the concentration needed to halve the response being measured. Low readings indicate inhibition by little substance, high ones a need for much substance. For the compound `O=C(Cc1cccc(-c2ccccc2)c1)Nc1cc(Cl)ccc1C(=O)O` [compound 1, 2-(2-([1,1’-biphenyl]-3-yl)acetamido)-4-chlorobenzoic acid], the dissociation constant (Kd) on KChIP3 was determined as 0.23 ± 0.02 µM. The inhibition at 0.03 µM was 23.2 ± 2.7% at KV4.3/KChIP3 [1], 9.7 ± 2.5% on KV4.3/KChIP3 [2], 9 ± 2.5% at KV4.3/KChIP3 [3] and 17 ± 3.6% on KV4.3/KChIP3 [4]. In addition, the 50% inhibitory concentration (IC50) at KV4.3/KChIP3 [5] is 0.03 µM.
